Assay results published in PubChem BioAssay AID1259407 (Chemical Carcinogenesis Research Information System (CCRIS), 2018).
Active and inactive are the calls of the source. The rule behind the calls is not given here.

Test system: CCRIS mutagenicity, Ames/micronucleus/aberration tests
Assay: CCRIS mutagenicity studies
Conditions: Method: PREINCUBATION

Measured: mutagenic call

C=CC(=O)NCO
inactive: Test System: AMES SALMONELLA TYPHIMURIUM, Strain/Indicator: TA97, Metabolic Activation: HAMSTER, LIVER, S-9, AROCLOR 1254 (10%) inactive; negative | Test System: AMES SALMONELLA TYPHIMURIUM, Strain/Indicator: TA97, Metabolic Activation: HAMSTER, LIVER, S-9, AROCLOR 1254 (10 OR 30%) inactive; negative | Test System: AMES SALMONELLA TYPHIMURIUM, Strain/Indicator: TA97, Metabolic Activation: HAMSTER, LIVER, S-9, AROCLOR 1254 (30%) inactive; negative | Test System: AMES SALMONELLA TYPHIMURIUM, Strain/Indicator: TA97, Metabolic Activation: NONE inactive; negative | Test System: AMES SALMONELLA TYPHIMURIUM, Strain/Indicator: TA97, Metabolic Activation: RAT, LIVER, S-9, AROCLOR 1254 (10% OR 30%) inactive; negative | Test System: AMES SALMONELLA TYPHIMURIUM, Strain/Indicator: TA97, Metabolic Activation: RAT, LIVER, S-9, AROCLOR 1254 (10 OR 30%) inactive; negative | Test System: AMES SALMONELLA TYPHIMURIUM, Strain/Indicator: TA98, Metabolic Activation: HAMSTER, LIVER, S-9, AROCLOR 1254 (10% OR 30%) inactive; negative | Test System: AMES SALMONELLA TYPHIMURIUM, Strain/Indicator: TA98, Metabolic Activation: HAMSTER, LIVER, S-9, AROCLOR 1254 (10 OR 30%) inactive; negative | Test System: AMES SALMONELLA TYPHIMURIUM, Strain/Indicator: TA98, Metabolic Activation: NONE inactive; negative | Test System: AMES SALMONELLA TYPHIMURIUM, Strain/Indicator: TA98, Metabolic Activation: RAT, LIVER, S-9, AROCLOR 1254 (10% OR 30%) inactive; negative | Test System: AMES SALMONELLA TYPHIMURIUM, Strain/Indicator: TA98, Metabolic Activation: RAT, LIVER, S-9, AROCLOR 1254 (10 OR 30%) inactive; negative | Test System: AMES SALMONELLA TYPHIMURIUM, Strain/Indicator: TA98, Metabolic Activation: RAT, LIVER, S-9, PHENOBARBITAL AND BETA-NAPHTHOFLAVONE inactive; negative | Test System: AMES SALMONELLA TYPHIMURIUM, Strain/Indicator: TA100, Metabolic Activation: HAMSTER, LIVER, S-9, AROCLOR 1254 (10% OR 30%) inactive; negative | Test System: AMES SALMONELLA TYPHIMURIUM, Strain/Indicator: TA100, Metabolic Activation: HAMSTER, LIVER, S-9, AROCLOR 1254 (10 OR 30%) inactive; negative | Test System: AMES SALMONELLA TYPHIMURIUM, Strain/Indicator: TA100, Metabolic Activation: NONE inactive; negative | Test System: AMES SALMONELLA TYPHIMURIUM, Strain/Indicator: TA100, Metabolic Activation: RAT, LIVER, S-9, AROCLOR 1254 (10% OR 30%) inactive; negative | Test System: AMES SALMONELLA TYPHIMURIUM, Strain/Indicator: TA100, Metabolic Activation: RAT, LIVER, S-9, AROCLOR 1254 (10 OR 30%) inactive; negative | Test System: AMES SALMONELLA TYPHIMURIUM, Strain/Indicator: TA100, Metabolic Activation: RAT, LIVER, S-9, PHENOBARBITAL AND BETA-NAPHTHOFLAVONE inactive; negative | Test System: AMES SALMONELLA TYPHIMURIUM, Strain/Indicator: TA102, Metabolic Activation: NONE inactive; negative | Test System: AMES SALMONELLA TYPHIMURIUM, Strain/Indicator: TA102, Metabolic Activation: RAT, LIVER, S-9, PHENOBARBITAL AND BETA-NAPHTHOFLAVONE inactive; negative | Test System: AMES SALMONELLA TYPHIMURIUM, Strain/Indicator: TA104, Metabolic Activation: NONE inactive; negative | Test System: AMES SALMONELLA TYPHIMURIUM, Strain/Indicator: TA104, Metabolic Activation: RAT, LIVER, S-9, PHENOBARBITAL AND BETA-NAPHTHOFLAVONE inactive; negative | Test System: AMES SALMONELLA TYPHIMURIUM, Strain/Indicator: TA1535, Metabolic Activation: HAMSTER, LIVER, S-9, AROCLOR 1254 (10% OR 30%) inactive; negative | Test System: AMES SALMONELLA TYPHIMURIUM, Strain/Indicator: TA1535, Metabolic Activation: HAMSTER, LIVER, S-9, AROCLOR 1254 (10 OR 30%) inactive; negative | Test System: AMES SALMONELLA TYPHIMURIUM, Strain/Indicator: TA1535, Metabolic Activation: NONE inactive; negative | Test System: AMES SALMONELLA TYPHIMURIUM, Strain/Indicator: TA1535, Metabolic Activation: RAT, LIVER, S-9, AROCLOR 1254 (10% OR 30%) inactive; negative | Test System: AMES SALMONELLA TYPHIMURIUM, Strain/Indicator: TA1535, Metabolic Activation: RAT, LIVER, S-9, AROCLOR 1254 (10 OR 30%) inactive; negative | Test System: AMES SALMONELLA TYPHIMURIUM, Strain/Indicator: TA1535, Metabolic Activation: RAT, LIVER, S-9, PHENOBARBITAL AND BETA-NAPHTHOFLAVONE inactive; negative | Test System: AMES SALMONELLA TYPHIMURIUM, Strain/Indicator: TA1537, Metabolic Activation: NONE inactive; negative | Test System: AMES SALMONELLA TYPHIMURIUM, Strain/Indicator: TA1537, Metabolic Activation: RAT, LIVER, S-9, PHENOBARBITAL AND BETA-NAPHTHOFLAVONE inactive; negative | Test System: E. COLI, Strain/Indicator: WP2UVRA/PKM101, Metabolic Activation: NONE inactive; negative | Test System: E. COLI, Strain/Indicator: WP2UVRA/PKM101, Metabolic Activation: RAT, LIVER, S-9, PHENOBARBITAL AND BETA-NAPHTHOFLAVONE inactive; negative | Test System: E. COLI, Strain/Indicator: WP2UVRA, Metabolic Activation: NONE inactive; negative | Test System: E. COLI, Strain/Indicator: WP2UVRA, Metabolic Activation: RAT, LIVER, S-9, PHENOBARBITAL AND BETA-NAPHTHOFLAVONE inactive; negative
